Measurements reported in paper PMC12444508, “Mechanistic Insights into the Anticancer Action of Novel 2‑Hydroxy-1,4-naphthoquinone Thiol Derivatives” (ACS Omega, 2025).

How the values were obtained:
SCC-9 cells (OSCC cells) = assay: MTT cell viability assay, SCC-9; assay type: cell-based, human; conditions: for IC50: Homo sapiens, SCC-9, 72 h, MTT, read-out: IC50 SCC-9 oral cancer; for SI (SCC-9): IC50 normal oral fibroblast / IC50 SCC-9
Procedure: (§1) Human SCC-4, SCC-9, and SCC-25 cells, derived from a human oral tongue SCC (squamous cell carcinoma), were obtained from ATCC (CRL-1624, CRL-1629, and CRL-1628, respectively) and maintained in 1:1 DMEM/F12 (Dulbecco’s modified Eagle’s medium and Ham’s F12 medium; Gibco (Thermo Fisher, Waltham, MA, USA)) supplemented with 10% (v/v) FBS (fetal bovine serum; Invitrogen, Thermo Fisher, Waltham, MA, USA) and 400 ng/mL hydrocortisone (Sigma-Aldrich Corporation, St. Louis, MO, USA). B16-F10 (melanoma; CRL-6475), HCT-116 (colorectal cancer; CCL-247), and HepG2 (liver cancer; HB-8065), in addition to primary normal human gingival fibroblasts obtained from ATCC (PCS-201-018), were maintained in DMEM supplemented with 10% (v/v) of FBS and were used in a maximum of six passages. Cells were grown in a humidified environment containing 5% CO2 at 37 °C. For all biological assays, compounds and shikonin were solubilized in 100% DMSO (all Sigma-Aldrich Corp.) to a final concentration of 10 mM and lapachol in ethanol. The carboplatin control was prepared in water (Fauldcarbo; Libbs Farmacêutica, São Paulo, SP, Brazil) and was used as a standard anticancer compound.
(§2) The viability of OSCC cell lines and primary human fibroblast cells was assessed using the MTT assay as in ref . Briefly, cells were grown in triplicate in 96-well plates (5 × 10^3 cells/well) until confluence. Then, the medium was removed, fresh medium was added, and the cells were returned to the incubator in the presence of different compounds. DMSO at the same concentration was used as a control for 100% cell viability. After 72 h, cells were incubated with 0.5 mg/mL of MTT reagent (3-(4,5-dimethyl-2-thiazolyl)-2,5-diphenyl-2-H-tetrazolium bromide) (Sigma-Aldrich Corporation, Louis, MO, USA) for 3.5 h. Then, the wells containing the cells were washed with PBS heated to 37 °C, the formazan crystals were dissolved in a solvent solution (DMSO/methanol 1:1 v/v), and the absorbance was read at 560 nm using an EPOCH microplate spectrophotometer (BioTek Instruments, Winooski, VT, USA) with the background absorbance at 670 nm subtracted. Control chemotherapeutics (carboplatin and shikonin) were used.
(§3) Data are presented as means ± SD. IC50 values for the MTT assays were obtained by nonlinear regression using the […] 8.4.3.0 program (Intuitive Software for Science, San Diego, CA, USA) from at least three independent experiments. A dose–response curve (inhibitor) vs response using the least-squares method was used to determine the IC50, SD, and R2 of the data. The selectivity index was calculated as SI = IC50 of the compound in normal oral fibroblast cells/IC50 of the same compound for each oral cancer cell line (SCC-4, SCC-9, and SCC-25) and averaged when indicated.

SCC-25 cells = assay: MTT cell viability assay, SCC-25; assay type: cell-based, human; conditions: for IC50: Homo sapiens, SCC-25, 72 h, MTT, read-out: IC50 SCC-25; for selective index (SI) SCC-25: vs normal oral fibroblasts
Procedure: as §1, §2, §3

SCC-4 cells = assay: MTT cell viability assay, SCC-4; assay type: cell-based, human; conditions: for IC50: Homo sapiens, SCC-4, 72 h, MTT, read-out: IC50 SCC-4; for selective index (SI) SCC-4: vs normal oral fibroblasts
Procedure: as §1, §2, §3

[1] = tested on: HCT-116 (colorectal cancer); assay: MTT cytotoxicity/selectivity, HCT-116; assay type: cell-based; conditions: vs normal oral fibroblasts
Procedure: as §1
as §2, with “DMSO at the same concentration was used as a control for 100% cell viability. After 72 h, cells were incubated with 0.5 mg/mL of MTT reagent (3-(4,5-dimethyl-2-thiazolyl)-2,5-diphenyl-2-H-tetrazolium bromide) (Sigma-Aldrich Corporation, Louis, MO, USA) for 3.5 h.” left out, “Control chemotherapeutics (carboplatin and shikonin) were used.” left out
(§4) Data are presented as means ± SD. […] The selectivity index was calculated as SI = IC50 of the compound in normal oral fibroblast cells/IC50 of the same compound for each oral cancer cell line (SCC-4, SCC-9, and SCC-25) and averaged when indicated.

HepG2 (liver cancer) = assay: MTT cytotoxicity/selectivity, HepG2; assay type: cell-based; conditions: vs normal oral fibroblasts
Procedure: as §1
as §2, with “DMSO at the same concentration was used as a control for 100% cell viability. After 72 h, cells were incubated with 0.5 mg/mL of MTT reagent (3-(4,5-dimethyl-2-thiazolyl)-2,5-diphenyl-2-H-tetrazolium bromide) (Sigma-Aldrich Corporation, Louis, MO, USA) for 3.5 h.” left out, “Control chemotherapeutics (carboplatin and shikonin) were used.” left out
as §4

Hemolysis assay = assay type: cell-based, human; conditions: human, human erythrocytes, Triton X-100 positive control, read-out: % Hemolysis (Mean ± SD)
Procedure: To determine the surfactant power of the substances present in biological membranes, a hemolysis test was carried out with human blood approved by the Research Ethics Committee of the Universidade Federal Fluminense (CAAE: 43134721.4.0000.5626). Erythrocytes were collected for centrifugation at 1500 rpm for 15 min, washed with PBS (phosphate-buffered saline) supplemented with 10 mM glucose, and counted in an automatic cell counter (Thermo Fisher, Waltham, MA, USA). […] In total, 10 μL of PBS was used as a negative control, and 10 μL of PBS with 0.1% Triton x 100 was used as a positive control. Data reading was performed with EPOCH (BioTek Instruments, Winooski, VT, USA) at an absorbance of 540 nm, and statistical data were generated using […] Prism 8.4.3.0 program (Intuitive Software for Science, San Diego, CA, USA).

C57BL/6 mice = assay: In vivo acute toxicity study; conditions: single intraperitoneal dose 100, 200 and 400 mg/kg, 14 days
Procedure: . All experiments were carried out in accordance with Brazilian guidelines and regulations. Dosing and analysis were performed in accordance with 423 OECD guidelines and reviewed by. Each group of animals had n = 3 and received only one intraperitoneal injection (Day 0) of compounds 7a and 7e dissolved in […] of PBS and 3% DMSO. Animals in the control group received only 3% DMSO in PBS. The first dose of the compound was 100 mg/kg. Subsequent dose levels (200 mg/kg and 400 mg/kg) were determined based on the result obtained from the previous dose. Animals were examined daily, twice a day, for mortality and morbidity for 14 days, when all animals were anesthetized (ketamine 100 mg/kg and xylazine 10 mg/kg) followed by cervical dislocation. Macroscopic necropsy of the main organs was performed. The animals’ body weight and average food consumption were measured every 7 days. As an indicator of morbidity, the following signs were evaluated: tremors, seizure, salivation, diarrhea, and lethargy, along with the signs of pain, increased back arching, and mobility disability. The necropsy included examination of the external characteristics of the carcass; external orifices of the body; the abdominal, thoracic, and cranial cavities; and organs/tissues of the liver, thymus, right kidney, right testicle, heart, and lung.

SCC-9 cells = assay: Reactive oxygen species production (ROS-Glo H2O2); assay type: cell-based, human; conditions: 2 × IC50, 24, 48 and 72 h, menadione positive control
Procedure: The assay was performed in SCC-9 cells as previously described. […] Menadione (M9529, Sigma-Aldrich Corporation, San Luis, Mo., USA), at a concentration of 20 μM, served as a positive control, while DMSO, at equivalent concentrations to the test substances, served as the negative control. Cells were then incubated at 37 °C with 5% CO2 for the indicated time, and ROS was measured by ROS-Glo H2O2 Assay G8820 (Promega Corporation, Madison, WI 53711 USA) as indicated by the vendor. The luminescence signal was measured using a luminescence detector, Luminometer TD-20/20 (Turner Designs Instrument, Sunnyvale, CA, USA).

| Compound | IC50 (SCC-9 cells (OSCC cells)) | SI (SCC-9) (SCC-9 cells (OSCC cells)) | IC50 (SCC-25 cells) | selective index (SI) SCC-25 (SCC-25 cells) | IC50 (SCC-4 cells) | selective index (SI) SCC-4 (SCC-4 cells) | selective index (SI) HCT-116 colon cancer [1] | selective index (SI) HepG2 hepatocellular carcinoma (HepG2 (liver cancer)) | hemolysis at 500 µM (Hemolysis assay) | abdominal cavity and macroscopic organs at necropsy (C57BL/6 mice) | body weight and food consumption vs control animals (C57BL/6 mice) | ROS production (SCC-9 cells) |
| --- | --- | --- | --- | --- | --- | --- | --- | --- | --- | --- | --- | --- |
| CC1(C)OC2=C(C(=O)c3ccccc3C2=O)C(Sc2ccccc2)C1Sc1ccccc1 (stereo not drawn) [7a, 2,2-Dimethyl-3,4-bis(phenylthio)-3,4-dihydro-2H-benzo[g]chromene-5,10-dione] | 26.3 µM | 2.2 | 28.2 µM | 2.0 | 10.6 µM | 5.4 | 2.7 | 2.1 | < 2% | no morphological changes or lesions | no significant difference | induced the generation of ROS |
| COc1ccc(SC2C3=C(OC(C)(C)C2Sc2ccc(OC)cc2)C(=O)c2ccccc2C3=O)cc1 (stereo not drawn) [7e, 3,4-Bis((4-methoxyphenyl)thio)-2,2-dimethyl-3,4-dihydro-2H-benzo[g]chromene-5,10-dione] | 46.5 µM | 2.4 | 13 µM | 8.5 | 57.1 µM | 1.9 | 9.1 | 3.4 | < 2% | no morphological changes or lesions | no significant difference | induced the generation of ROS |
